Measured values reported in patent US12152031B2, “Biodefense agents” (priority 2018, dated 2024).
Values after ≈ are worked out from the molar mass of the structure shown.

Columns and labels:
Assay type in all cases: cell-based
Bacillus anthracis = experiment: microbe, parasite or virus in culture; settings: for MIC: read-out: MIC range
Yersinia pestis = experiment: microbe, parasite or virus in culture; settings: for MIC: read-out: MIC range
Francisella tularensis = experiment: microbe, parasite or virus in culture; settings: for MIC: read-out: MIC range
Burkholderia mallei = experiment: microbe, parasite or virus in culture; settings: for MIC: read-out: MIC range
[1] = system: Burkholderia pseudomallei; experiment: microbe, parasite or virus in culture; settings: Burkholderia pseudomallei; for MIC: read-out: MIC range
Enterobacteriaceae = system: Enterobacteriaceae
E. coli DH10B = experiment: microbe, parasite or virus in culture; settings: Escherichia coli
[2] = system: E. coli DH10B mcr-1 transformant; experiment: microbe, parasite or virus in culture; settings: Escherichia coli
P. aeruginosa = experiment: microbe, parasite or virus in culture; settings: Pseudomonas aeruginosa, read-out: MICs

Row | Structure (SMILES) | MIC50 (Bacillus anthracis) [µg/mL] | MIC90 (Bacillus anthracis) [µg/mL] | MIC (Bacillus anthracis) [µg/mL] | MIC50 (Yersinia pestis) [µg/mL] | MIC90 (Yersinia pestis) [µg/mL] | MIC (Yersinia pestis) [µg/mL] | MIC50 (Francisella tularensis) [µg/mL] | MIC90 (Francisella tularensis) [µg/mL] | MIC (Francisella tularensis) [µg/mL] | MIC50 (Burkholderia mallei) [µg/mL] | MIC90 (Burkholderia mallei) [µg/mL] | MIC (Burkholderia mallei) [µg/mL] | MIC50 [1] [µg/mL] | MIC90 [1] [µg/mL] | MIC [1] [µg/mL] | peak of unimodal MIC distribution (Enterobacteriaceae) [mg/L] | MIC (E. coli DH10B) [µg/mL] | MIC [2] [µg/mL] | MIC (P. aeruginosa) [µg/mL]
1 | C[C@H](N)CCCc1cc(Cl)c(F)c(-c2cc3cn(-c4ccc([C@H]5CC[C@H](CCNC(=N)N)N5)cc4)c(=O)nc3[nH]2)c1 [RX-D13] | 0.06 (≈ 0.104 µM) | 0.06 (≈ 0.104 µM) | 0.008 to 0.12 (≈ 0.0138 to 0.207 µM) | 0.06 (≈ 0.104 µM) | 0.25 (≈ 0.432 µM) | 0.03 to 0.25 (≈ 0.0518 to 0.432 µM) | 0.015 (≈ 0.0259 µM) | 0.06 (≈ 0.104 µM) | 0.004 to 0.12 (≈ 0.00691 to 0.207 µM) | 0.06 (≈ 0.104 µM) | 0.12 (≈ 0.207 µM) | 0.008 to 0.12 (≈ 0.0138 to 0.207 µM) | 1 (≈ 1.73 µM) | 4 (≈ 6.91 µM) | 0.25 to 8 (≈ 0.432 to 13.8 µM) | – | – | – | –
2 | C=C[C@H](N)CCCc1cc(Cl)c(F)c(-c2cc3cn(-c4ccc([C@@H]5CCC[C@@H](CCNC(C)=N)N5)c(SC)c4)c(=O)nc3[nH]2)c1 [RX-D7] | ≤ 0.008 | 0.03 (≈ 0.0461 µM) | 0.008 to 0.06 (≈ 0.0123 to 0.0923 µM) | 0.25 (≈ 0.384 µM) | 0.5 (≈ 0.769 µM) | 0.03 to 1 (≈ 0.0461 to 1.54 µM) | 0.12 (≈ 0.185 µM) | 0.25 (≈ 0.384 µM) | 0.06 to 0.5 (≈ 0.0923 to 0.769 µM) | 0.25 (≈ 0.384 µM) | 0.25 (≈ 0.384 µM) | 0.06 to 0.5 (≈ 0.0923 to 0.769 µM) | 4 (≈ 6.15 µM) | 8 (≈ 12.3 µM) | – | – | – | – | –
3 | CCCN1[C@H](CCNC(C)=N)CCC[C@H]1c1ccc(-n2cc3cc(-c4cc(CCC[C@H](C)N)cc(Cl)c4F)[nH]c3nc2=O)cc1 [RX-D5] | 0.06 (≈ 0.0946 µM) | 0.06 (≈ 0.0946 µM) | 0.015 to 0.12 (≈ 0.0237 to 0.189 µM) | 0.12 (≈ 0.189 µM) | 0.25 (≈ 0.394 µM) | 0.03 to 0.5 (≈ 0.0473 to 0.788 µM) | 0.06 (≈ 0.0946 µM) | 0.12 (≈ 0.189 µM) | 0.004 to 1 (≈ 0.00631 to 1.58 µM) | 0.06 (≈ 0.0946 µM) | 0.12 (≈ 0.189 µM) | 0.03 to 0.12 (≈ 0.0473 to 0.189 µM) | 4 (≈ 6.31 µM) | 8 (≈ 12.6 µM) | – | – | – | – | –
4 | C[C@H](N)CCCc1cc(Cl)c(F)c(-c2cc3cn(-c4ccc([C@@H]5CCC[C@@H](CCSC(=N)N)N5)c(F)c4)c(=O)nc3[nH]2)c1 [RX-D11] | 0.12 (≈ 0.191 µM) | 0.25 (≈ 0.398 µM) | 0.008 to 0.5 (≈ 0.0127 to 0.796 µM) | 0.12 (≈ 0.191 µM) | 0.25 (≈ 0.398 µM) | 0.004 to 0.25 (≈ 0.00637 to 0.398 µM) | 0.06 (≈ 0.0955 µM) | 0.12 (≈ 0.191 µM) | 0.008 to 1 (≈ 0.0127 to 1.59 µM) | 0.06 (≈ 0.0955 µM) | 0.12 (≈ 0.191 µM) | 0.03 to 0.25 (≈ 0.0478 to 0.398 µM) | 1 (≈ 1.59 µM) | 2 (≈ 3.18 µM) | 0.25 to 8 (≈ 0.398 to 12.7 µM) | – | – | – | –
5 | C[C@H](N)CCCc1cc(Cl)c(F)c(-c2cc3cn(-c4ccc([C@@H]5CCC[C@@H](CCSC(=N)N)N5)cc4)c(=O)nc3[nH]2)c1 [RX-D4] | 0.06 (≈ 0.0983 µM) | 0.12 (≈ 0.197 µM) | 0.015 to 0.12 (≈ 0.0246 to 0.197 µM) | 0.12 (≈ 0.197 µM) | 0.25 (≈ 0.41 µM) | 0.004 to 0.5 (≈ 0.00656 to 0.819 µM) | 0.03 (≈ 0.0492 µM) | 0.06 (≈ 0.0983 µM) | 0.004 to 0.5 (≈ 0.00656 to 0.819 µM) | 0.12 (≈ 0.197 µM) | 0.12 (≈ 0.197 µM) | 0.03 to 0.12 (≈ 0.0492 to 0.197 µM) | 1 (≈ 1.64 µM) | 4 (≈ 6.56 µM) | 0.25 to 8 (≈ 0.41 to 13.1 µM) | – | – | – | –
6 | CC(=N)NCC[C@@H]1CCC[C@@H](c2ccc(-n3cc4cc(-c5cc(CCC[C@@H](N)CO)cc(Cl)c5F)[nH]c4nc3=O)cc2F)N1 [RX-04C, N-(2-((2S,6S)-6-(4-(6-(5-((R)-4-amino-5-hydroxypentyl)-3-chloro-2-fluorophenyl)-2-oxo-2,7-dihydro-3H-pyrrolo[2,3-d]pyrimidin-3-yl)-2-fluorophenyl)piperidin-2-yl)ethyl)acetimidamide] | – | – | – | – | – | – | – | – | – | – | – | – | – | – | – | 2 | 0.5 (≈ 0.799 µM) | 0.5 (≈ 0.799 µM) | ≥ 16
7 | C[C@H](N)CCCc1cc(Cl)c(F)c(-c2cc3cn(-c4ccc([C@@H]5CCC[C@@H](CCNC(=N)CN)N5)cc4)c(=O)nc3[nH]2)c1 [RX-D6] | 0.12 (≈ 0.198 µM) | 0.25 (≈ 0.412 µM) | 0.06 to 0.25 (≈ 0.0988 to 0.412 µM) | 0.5 (≈ 0.823 µM) | 1 (≈ 1.65 µM) | 0.015 to 1 (≈ 0.0247 to 1.65 µM) | 0.06 (≈ 0.0988 µM) | 0.25 (≈ 0.412 µM) | 0.03 to 0.5 (≈ 0.0494 to 0.823 µM) | 0.12 (≈ 0.198 µM) | 0.25 (≈ 0.412 µM) | 0.12 to 0.25 (≈ 0.198 to 0.412 µM) | > 8 | > 8 | – | – | – | – | –
8 | CC(=N)NCC[C@@H]1CSC[C@@H](c2ccc(-n3cc4cc(-c5cc(CCC[C@H](C)N)cc(Cl)c5F)[nH]c4nc3=O)cc2)N1 [RX-D9] | 0.06 (≈ 0.0983 µM) | 0.12 (≈ 0.197 µM) | 0.008 to 0.12 (≈ 0.0131 to 0.197 µM) | 0.12 (≈ 0.197 µM) | 0.25 (≈ 0.41 µM) | 0.06 to 0.5 (≈ 0.0983 to 0.819 µM) | 0.12 (≈ 0.197 µM) | 0.25 (≈ 0.41 µM) | 0.03 to 2 (≈ 0.0492 to 3.28 µM) | 0.12 (≈ 0.197 µM) | 0.25 (≈ 0.41 µM) | 0.03 to 0.5 (≈ 0.0492 to 0.819 µM) | 2 (≈ 3.28 µM) | 4 (≈ 6.56 µM) | 0.5 to 4 (≈ 0.819 to 6.56 µM) | – | – | – | –
